We go through eight compounds from PubChem BioAssay AID624129 (Sanford-Burnham Center for Chemical Genomics, 2012).

A word on the IC50: it is the concentration at which inhibition is half-maximal. Broadly, the inhibition is the relative decrease from the control value, in per cent.

Each structure is given as a SMILES string. Calls of active or inactive are those of the source. No rule for the calls is given here. A value given as a limit tells only on which side of the number the result lay.

Holding throughout (test): potency against CXCR6 with APJ panel – cell-based, beta-arrestin, DiscoveRx, uHTS hits, dose response (AID 624129)
Experiment [1] deals with C-X-C chemokine receptor type 6 (Homo sapiens) (UniProt O00574). Particulars: CXCR6 beta-arrestin (DiscoveRx) antagonist cell assay; for inhibition: CXCR6, run 1, dose range 2, at 80 µM (top of the series).
Experiment [2] deals with C-C chemokine receptor type 6 (Homo sapiens) (UniProt P51684). Conditions: CXCR6 beta-arrestin (DiscoveRx) antagonist cell assay.
The target of experiment [3] is Beta-galactosidase (Escherichia coli) (UniProt Q8VNN2). Particulars: CXCR6 beta-arrestin (DiscoveRx) antagonist cell assay, b-galactosidase.
Experiment [4] has as its target Apelin receptor (Homo sapiens) (UniProt P35414). Particulars: CXCR6 beta-arrestin (DiscoveRx) antagonist cell assay, APJ.
The mark [5] stands for this setting: CXCR6, dose range 1, mean IC50 across replicates.
Setting [6] is: CCR6, dose range 1, mean IC50 across replicates.
Where [7] appears, read: dose range 1, mean IC50 across replicates.

Sequence of Beta-galactosidase (Escherichia coli) (Q8VNN2 whole entry, looked up): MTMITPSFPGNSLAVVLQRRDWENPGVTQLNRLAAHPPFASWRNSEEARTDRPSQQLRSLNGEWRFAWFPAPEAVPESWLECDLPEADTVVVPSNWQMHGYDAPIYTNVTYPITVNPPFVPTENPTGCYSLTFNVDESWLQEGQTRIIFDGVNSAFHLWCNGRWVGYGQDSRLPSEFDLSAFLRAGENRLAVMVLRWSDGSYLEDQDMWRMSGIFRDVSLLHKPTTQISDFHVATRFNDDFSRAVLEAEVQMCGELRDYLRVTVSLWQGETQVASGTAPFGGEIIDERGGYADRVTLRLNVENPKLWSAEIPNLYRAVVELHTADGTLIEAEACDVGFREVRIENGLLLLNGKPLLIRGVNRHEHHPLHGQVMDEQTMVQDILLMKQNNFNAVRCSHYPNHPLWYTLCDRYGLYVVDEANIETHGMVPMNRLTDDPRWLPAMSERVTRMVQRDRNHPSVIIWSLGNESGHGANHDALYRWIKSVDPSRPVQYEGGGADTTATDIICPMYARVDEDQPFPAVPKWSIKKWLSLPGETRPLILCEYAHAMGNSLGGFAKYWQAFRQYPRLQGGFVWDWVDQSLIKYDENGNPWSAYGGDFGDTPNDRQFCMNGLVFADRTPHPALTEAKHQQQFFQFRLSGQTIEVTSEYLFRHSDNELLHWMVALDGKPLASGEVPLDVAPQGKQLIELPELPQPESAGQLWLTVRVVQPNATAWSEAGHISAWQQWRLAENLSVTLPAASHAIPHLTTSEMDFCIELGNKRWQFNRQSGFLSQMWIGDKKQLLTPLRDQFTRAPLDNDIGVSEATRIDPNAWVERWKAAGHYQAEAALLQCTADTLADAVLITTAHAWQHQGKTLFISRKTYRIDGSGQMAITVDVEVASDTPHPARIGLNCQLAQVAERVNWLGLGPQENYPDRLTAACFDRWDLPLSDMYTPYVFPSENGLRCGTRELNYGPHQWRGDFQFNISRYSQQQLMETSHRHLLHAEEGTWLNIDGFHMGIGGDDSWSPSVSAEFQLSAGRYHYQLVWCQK
Sequence of C-X-C chemokine receptor type 6 (Homo sapiens) (O00574 whole entry, looked up): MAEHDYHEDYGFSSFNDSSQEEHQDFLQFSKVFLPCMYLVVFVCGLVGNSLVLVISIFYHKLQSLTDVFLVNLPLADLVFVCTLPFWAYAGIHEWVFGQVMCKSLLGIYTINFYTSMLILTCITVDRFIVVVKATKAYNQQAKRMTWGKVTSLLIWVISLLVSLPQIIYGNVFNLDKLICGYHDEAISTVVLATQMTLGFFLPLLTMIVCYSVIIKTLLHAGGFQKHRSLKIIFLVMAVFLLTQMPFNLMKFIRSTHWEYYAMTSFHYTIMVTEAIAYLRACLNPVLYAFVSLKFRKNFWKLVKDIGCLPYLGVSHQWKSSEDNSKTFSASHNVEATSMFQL

With `C/C(=N\NC(=O)C(c1ccccc1)c1ccccc1)c1ccccn1`, the concentration for half-maximal inhibition (IC50) in experiment [1] (CXCR6, dose range 1) is 3.04 µM; in experiment [1] (setting [5]) it was 4.66 µM; in experiment [1] (CXCR6, run 1, dose range 2), 2.25 µM; in experiment [1] (CXCR6, run 2, dose range 1), 10.9 µM; in experiment [1] (CXCR6, run 2, dose range 2), 2.44 µM; in experiment [2] (CCR6, dose range 1), 1.99 µM. Also, the IC50 is 2.25 µM in experiment [2] (setting [6]); 2.52 µM in experiment [2] (CCR6, run 2, dose range 1); > 80 µM (inactive) in experiment [3] (dose range 1); > 80 µM in experiment [3] (setting [7]); 7.16 µM in experiment [4] (dose range 1); 12 µM in experiment [4] (setting [7]). Moreover, the half-inhibitory concentration (IC50) was 9.32 µM in experiment [4] (run 2, dose range 1) and 19.6 µM in experiment [4] (run 3, dose range 1).

On to `Cc1ccc(NC(=S)N/N=C/c2ccc([N+](=O)[O-])s2)cc1`, for which the half-maximal inhibitory concentration (IC50) in experiment [1] (CXCR6, dose range 1) was 9.1 µM; in experiment [1] (setting [5]), 7.46 µM; in experiment [1] (CXCR6, run 1, dose range 2), 5.64 µM; in experiment [1] (CXCR6, run 2, dose range 1), 8.89 µM; in experiment [1] (CXCR6, run 2, dose range 2), 6.21 µM; in experiment [2] (CCR6, dose range 1), 3.88 µM. Besides, the IC50 in experiment [2] (setting [6]) is 5.06 µM; in experiment [2] (CCR6, run 2, dose range 1), 6.24 µM; in experiment [3] (dose range 1) it was 31.3 µM; in experiment [3] (setting [7]), 31.3 µM; in experiment [4] (dose range 1) it was 9.42 µM; in experiment [4] (setting [7]) it was 19.2 µM. For the same compound, the concentration for half-maximal inhibition (IC50) was 18.1 µM in experiment [4] (run 2, dose range 1) and 30 µM in experiment [4] (run 3, dose range 1).

In the case of `O=[N+]([O-])/C=C/c1c(Cl)cccc1Cl`, the IC50 in experiment [1] (CXCR6, dose range 1) was > 80 µM (inactive); in experiment [1] (setting [5]), > 80 µM; in experiment [1] (CXCR6, run 2, dose range 1), > 80 µM; in experiment [2] (setting [6]), > 80 µM; in experiment [2] (CCR6, run 2, dose range 1), > 80 µM; in experiment [3] (dose range 1), > 80 µM (inactive). Moreover, the IC50 was > 80 µM in experiment [3] (setting [7]); 14.3 µM in experiment [4] (setting [7]); > 80 µM in experiment [4] (run 2, dose range 1); 14.3 µM in experiment [4] (run 3, dose range 1). Besides, the inhibition in experiment [1] is 54%.

Regarding `CCCCOc1ccc(C(=O)NNC(=S)NC(=O)CC)cc1`, the IC50 in experiment [1] (CXCR6, dose range 1) is 7.96 µM; in experiment [1] (setting [5]) it was 10.4 µM; in experiment [1] (CXCR6, run 1, dose range 2), 7.49 µM; in experiment [1] (CXCR6, run 2, dose range 1) it was 16 µM; in experiment [1] (CXCR6, run 2, dose range 2), 10 µM; in experiment [2] (CCR6, dose range 1) it was 7.58 µM. In addition, the concentration for half-maximal inhibition (IC50) was 8.35 µM in experiment [2] (setting [6]); 9.11 µM in experiment [2] (CCR6, run 2, dose range 1); > 80 µM (inactive) in experiment [3] (dose range 1); > 80 µM in experiment [3] (setting [7]); 8.68 µM in experiment [4] (dose range 1); 15.4 µM in experiment [4] (setting [7]). In addition, the IC50 worked out at 10.6 µM in experiment [4] (run 2, dose range 1) and 27.1 µM in experiment [4] (run 3, dose range 1).

As to `CCO[C@@H]1OC(C(=O)N2CCN(Cc3ccccc3)CC2)=C[C@H](c2ccc(Br)cc2)[C@H]1CCCO`, the IC50 result in experiment [1] (CXCR6, dose range 1) was “inactive”. In addition, the 50% inhibitory concentration (IC50) in experiment [1] (setting [5]) was 12.1 µM; in experiment [1] (CXCR6, run 2, dose range 1) it was 9.21 µM; in experiment [2] (CCR6, dose range 1), 11.4 µM; in experiment [2] (setting [6]) it was 11.5 µM; in experiment [2] (CCR6, run 2, dose range 1), 11.6 µM; in experiment [3] (dose range 1), > 80 µM (inactive). In addition, the concentration for half-maximal inhibition (IC50) in experiment [3] (setting [7]) was > 80 µM; in experiment [4] (dose range 1), 16.6 µM; in experiment [4] (setting [7]) it was 19.4 µM; in experiment [4] (run 2, dose range 1) it was 21.1 µM; in experiment [4] (run 3, dose range 1), 20.4 µM. In experiment [1], the inhibition was determined as 126%.

On to `COc1cc(/C=C/c2ccc3cccc(O)c3n2)ccc1O`, for which the IC50 result in experiment [1] (CXCR6, dose range 1) was “inactive”. Moreover, the IC50 was 14.4 µM in experiment [1] (setting [5]); 13.1 µM in experiment [1] (CXCR6, run 2, dose range 1); 13 µM in experiment [2] (CCR6, dose range 1); 12.9 µM in experiment [2] (setting [6]); 12.9 µM in experiment [2] (CCR6, run 2, dose range 1); > 80 µM (inactive) in experiment [3] (dose range 1). In addition, the IC50 in experiment [3] (setting [7]) is > 80 µM; in experiment [4] (dose range 1) it was 15.3 µM; in experiment [4] (setting [7]) it was 19.1 µM; in experiment [4] (run 2, dose range 1), 20.7 µM; in experiment [4] (run 3, dose range 1), 21.4 µM. Besides, in experiment [1], the inhibition was found to be 131%.

Turning to `O=C(Nc1nc(-c2ccccn2)cs1)Nc1ccc(F)cc1F`, the IC50 is 11.4 µM in experiment [1] (CXCR6, dose range 1); 8.93 µM in experiment [1] (setting [5]); 5.96 µM in experiment [1] (CXCR6, run 1, dose range 2); 11.5 µM in experiment [1] (CXCR6, run 2, dose range 1); 6.87 µM in experiment [1] (CXCR6, run 2, dose range 2); 8.74 µM in experiment [2] (CCR6, dose range 1). The IC50 in experiment [2] (setting [6]) was 10.1 µM; in experiment [2] (CCR6, run 2, dose range 1), 11.5 µM; in experiment [3] (dose range 1), > 80 µM (inactive); in experiment [3] (setting [7]) it was > 80 µM; in experiment [4] (dose range 1), 8.6 µM; in experiment [4] (setting [7]) it was 9.05 µM. Besides, the IC50 was 9.65 µM in experiment [4] (run 2, dose range 1) and 8.89 µM in experiment [4] (run 3, dose range 1).

Turning to `Nc1cc(Cl)c2nonc2c1[N+](=O)[O-]`, the half-inhibitory concentration (IC50) in experiment [1] (CXCR6, dose range 1) was 11.5 µM; in experiment [1] (setting [5]), 8.28 µM; in experiment [1] (CXCR6, run 1, dose range 2) it was 7.05 µM; in experiment [1] (CXCR6, run 2, dose range 1) it was 7.17 µM; in experiment [1] (CXCR6, run 2, dose range 2), 7.35 µM; in experiment [2] (CCR6, dose range 1), 5.46 µM. For the same compound, the IC50 in experiment [2] (setting [6]) was 7.31 µM; in experiment [2] (CCR6, run 2, dose range 1), 9.16 µM; in experiment [3] (dose range 1), > 80 µM (inactive); in experiment [3] (setting [7]), > 80 µM; in experiment [4] (dose range 1) it was 10.8 µM; in experiment [4] (setting [7]), 20.6 µM. In addition, the IC50 worked out at 13.5 µM in experiment [4] (run 2, dose range 1) and 37.6 µM in experiment [4] (run 3, dose range 1).
